Results reported in patent US7973059B2, “Potassium channel inhibitors” (Merck Sharp & Dohme Corp., priority 2005, dated 2011).

Target: human Kv1.5 potassium channel alpha subunit (Homo sapiens, UniProt P22460)
Assay: High throughput Kv1.5 planar patch clamp assay (Kv1.5 HT-clamp, IonWorks HT)
Type: cell-based
Parameters: Kv1.5 HT-clamp % inhibition: dose or concentration left out as unconfirmed
Details: not given
Excerpt: The high throughput Kv1.5 planar patch clamp assay is a systematic primary screen. It confirms activity and provides a functional measure of the potency of agents that specifically affect Kv1.5 potassium channels. Kiss et al. (Assay and Drug Dev. Tech., 1(1-2):127-135, 2003) and Schroeder et al. (J. of Biomol. Screen., 8(1); 50-64, 2003) describe the use of this instrument for Kv1.5 as well as other voltage gated ion channels.
Chinese hamster ovary cells (CHO) stably expressing the human Kv1.5 potassium channel alpha subunit, cloned from human heart, are grown to 90-100% confluence in Ham's F12 medium supplemented with 10% FBS, 100 U/ml penicillin, 100 μg/ml streptomycin, 1000 μg/ml G-418 sulfate. Cells are subcultured by treatment with Versene, then suspended in phosphate-buffered saline (PBS) and centrifuged The cell pellet is re-suspended in PBS and the resulting suspension placed in the cell reservoir of the IonWorks™ HT instrument.
Electrophysiological recordings are performed with intracellular solution containing (mM): K-gluconate 100, KCl 40, MgCl2 3.2, EGTA 3, N-2-hydroxylethylpiperazine-N^1-2-ethanesulphonic acid (HEPES) 5, adjusted to pH 7.3. Amphotericin (Sigma) is prepared as 30 mg/ml stock solution and diluted to a final working concentration of 0.1 mg/ml in internal buffer solution. The external solution is Dulbecco's PBS (Invitrogen) and contains (mM): CaCl2 0.90, KCl 2.67, K3PO4 1.47, MgCl2 0.50, NaCl 138, Na3PO4 8.10 and has a pH of 7.4. All compounds are prepared as 10 mM stock solutions in DMSO. Compounds are diluted into external buffer, then transferred from the drug plate to the Patchplate during the experiment (final DMSO concentration <0.66% vol.).
Kv1.5 ionic currents are recorded at room temperature. Membrane currents are amplified (RMS ˜10 pA) and sampled at 10 kHz. Leak subtraction was performed in all experiments by applying a 160 ms hyperpolarizing (10 mV) pre-pulses 200 ms before the test pulses to measure leak conductance. The patch clamp stimulus protocol is as follows: • 1. Patchplate wells are loaded with 3.5 μL of external buffer. • 2. Planar micropipette hole resistances (Rp) is determined by applying a 10 mV, 160 ms potential difference across each hole (Hole test). • 3. Cells are pipetted into the Patchplate and form high resistance seals with the 1-2 μm holes at the bottom of each Patchplate well. A seal test scan is performed to determine how many of the Patchplate wells have cells that have formed seals. • 4. In order to gain electrical access to the cells, intracellular solution containing amphotericin is circulated for 4 minutes on the bottom side of the Patchplate. • 5. Pre-compound addition test pulse is applied to each well on the Patchplate. Protocol: Cells are voltage clamped at a membrane holding potential of −80 mV for 15 seconds. This is followed by application of a 5 Hz stimulus train (27×150 ms depolarizations to +40 mV). The membrane potential steps to +40 mV evoke outward (positive) ionic currents. • 6. Compound is added to each well of the Patchplate. Compounds are allowed to incubate for 5 minutes. • 7. Post-compound addition test pulse protocol is applied. Protocol: Cells are voltage clamped at a membrane holding potential of −80 mV for 15 seconds. This is followed by application of a 5 Hz stimulus train (27×150 ms depolarizations to +40 mV).
Data analysis is conducted off-line. Paired comparisons between pre-drug and post-drug additions are used to determine the inhibitory effect of each compound. % inhibition of the peak control current during the 27th depolarization to +40 mV (in the 5 Hz train) is plotted as a function of antagonist concentration. The concentrations of drug required to inhibit current by 50% (IC50) are determined by fitting of the Hill equation to the concentration response data: % of Control=100×(1+([Drug]/IC50)^p)^−1 […]

Chain of human Kv1.5 potassium channel alpha subunit (P22460 whole entry): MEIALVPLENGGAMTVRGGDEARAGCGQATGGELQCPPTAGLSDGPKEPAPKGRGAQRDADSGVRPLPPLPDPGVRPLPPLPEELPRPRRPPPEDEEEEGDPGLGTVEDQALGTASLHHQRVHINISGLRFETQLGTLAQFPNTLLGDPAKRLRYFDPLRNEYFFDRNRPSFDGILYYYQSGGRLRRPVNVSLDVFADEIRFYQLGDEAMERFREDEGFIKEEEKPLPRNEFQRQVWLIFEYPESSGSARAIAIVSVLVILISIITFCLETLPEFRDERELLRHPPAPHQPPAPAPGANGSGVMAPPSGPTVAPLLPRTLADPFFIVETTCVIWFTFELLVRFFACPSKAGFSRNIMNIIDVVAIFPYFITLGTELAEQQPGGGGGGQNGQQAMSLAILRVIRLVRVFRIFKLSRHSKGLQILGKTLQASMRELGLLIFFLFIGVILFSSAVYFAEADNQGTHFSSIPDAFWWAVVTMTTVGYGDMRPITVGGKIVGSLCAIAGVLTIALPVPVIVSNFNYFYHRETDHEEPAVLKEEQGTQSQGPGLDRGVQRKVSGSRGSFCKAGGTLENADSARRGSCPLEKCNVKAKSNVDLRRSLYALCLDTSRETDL

| Compound | Kv1.5 HT-clamp % inhibition |
| --- | --- |
| OC(c1cccnc1-c1cc(Cl)cc(Cl)c1)C(c1cccnc1)c1cccnc1F (single isomer, unassigned) [Example 3 Isomer 1, Enantiomer B, 1-[2-(3,5-dichlorophenyl)pyridin-3-yl]-2-(2-fluoropyridin-3-yl)-2-pyridin-3-ylethanol] | 72% |

Same assay, conditions: CHO cells stably expressing human Kv1.5; 27th depolarization to +40 mV in 5 Hz train

| Compound | IC50 |
| --- | --- |
| OC(c1cccnc1-c1cc(Cl)ccc1Cl)C(c1cccnc1)c1cccnc1 (single isomer, unassigned) [Example 5 Enantiomer A, 1-[2-(2,5-dichlorophenyl)pyridin-3-yl]-2,2-dipyridin-3-ylethanol] | 3200 nM |
| O[C@@H](c1cccnc1-c1cc(Cl)cc(Cl)c1)C(c1cccnc1)c1cccnc1 [(R)-1-[2-(3,5-dichlorophenyl)pyridin-3-yl]-2,2-dipyridin-3-ylethanol] | 90 nM |
| OC(c1cccnc1-c1cc(Cl)cc(Cl)c1)C(c1cccnc1)c1cccnc1 (racemic) [Example 1 Racemic, racemic 1-[2-(3,5-dichlorophenyl)pyridin-3-yl]-2,2-dipyridin-3-ylethanol] | 116 nM |
| OC(c1cccnc1-c1cc(Cl)ccc1Cl)C(c1cccnc1)c1cccnc1 (single isomer, unassigned) [Example 5 Enantiomer B, 1-[2-(2,5-dichlorophenyl)pyridin-3-yl]-2,2-dipyridin-3-ylethanol] | 75 nM |
| OC(c1cccnc1-c1cccc(Cl)c1Cl)C(c1cccnc1)c1cccnc1 (single isomer, unassigned) [Example 6 Enantiomer B, 1-[2-(2,3-dichlorophenyl)pyridin-3-yl]-2,2-dipyridin-3-ylethanol] | 236 nM |
| OC(c1cccnc1-c1cccc(Cl)c1Cl)C(c1cccnc1)c1cccnc1 (single isomer, unassigned) [Example 6 Enantiomer A, 1-[2-(2,3-dichlorophenyl)pyridin-3-yl]-2,2-dipyridin-3-ylethanol] | 5210 nM |
| OC(c1cccnc1-c1ccccc1Cl)C(c1cccnc1)c1cccnc1 (single isomer, unassigned) [Example 4 Enantiomer B, 1-[2-(2-chlorophenyl)pyridin-3-yl]-2,2-dipyridin-3-ylethanol] | 25000 nM |
| OC(c1cccnc1-c1cc(Cl)cc(Cl)c1)C(c1cccnc1)c1cccnc1F (single isomer, unassigned) [Example 3 Isomer 2, Enantiomer A, 1-[2-(3,5-dichlorophenyl)pyridin-3-yl]-2-(2-fluoropyridin-3-yl)-2-pyridin-3-ylethanol] | 154 nM |
| OC(c1cccnc1-c1cc(Cl)cc(Cl)c1)C(c1cccnc1)c1cccnc1F (single isomer, unassigned) [Example 3 Isomer 1, Enantiomer A, 1-[2-(3,5-dichlorophenyl)pyridin-3-yl]-2-(2-fluoropyridin-3-yl)-2-pyridin-3-ylethanol] | 96 nM |
| O[C@H](c1cccnc1-c1cc(Cl)cc(Cl)c1)C(c1cccnc1)c1cccnc1 [(S)-1-[2-(3,5-dichlorophenyl)pyridin-3-yl]-2,2-dipyridin-3-ylethanol] | 2920 nM |
| OC(c1cccnc1-c1cccc(Cl)c1Cl)C(c1cccnc1)c1cccnc1 (racemic) [Example 6 Racemic, racemic 1-[2-(2,3-dichlorophenyl)pyridin-3-yl]-2,2-dipyridin-3-ylethanol] | 110 nM |
| OC(c1cccnc1-c1cccc(C(F)(F)F)c1)C(c1cccnc1)c1cccnc1 (single isomer, unassigned) [Example 2 Enantiomer A, 2,2-dipyridin-3-yl-1-{2-[3-(trifluoromethyl)phenyl]pyridin-3-yl}ethanol] | 290 nM |
| OC(c1cccnc1-c1ccccc1Cl)C(c1cccnc1)c1cccnc1 (single isomer, unassigned) [Example 4 Enantiomer A, 1-[2-(2-chlorophenyl)pyridin-3-yl]-2,2-dipyridin-3-ylethanol] | 171 nM |
| OC(c1cccnc1-c1cccc(C(F)(F)F)c1)C(c1cccnc1)c1cccnc1 (racemic) [Example 2 Racemic, racemic 2,2-dipyridin-3-yl-1-{2-[3-(trifluoromethyl)-phenyl]pyridin-3-yl}ethanol] | 266 nM |
| OC(c1cccnc1-c1cc(Cl)ccc1Cl)C(c1cccnc1)c1cccnc1 (racemic) [Example 5 Racemic, racemic 1-[2-(2,5-dichlorophenyl)pyridin-3-yl]-2,2-dipyridin-3-ylethanol] | 77 nM |
| OC(c1cccnc1-c1cccc(C(F)(F)F)c1)C(c1cccnc1)c1cccnc1 (single isomer, unassigned) [Example 2 Enantiomer B, 2,2-dipyridin-3-yl-1-{2-[3-(trifluoromethyl)phenyl]pyridin-3-yl}ethanol] | 8220 nM |
| OC(c1cccnc1-c1ccccc1Cl)C(c1cccnc1)c1cccnc1 (racemic) [Example 4 Racemic, racemic 1-[2-(2-chlorophenyl)pyridin-3-yl]-2,2-dipyridin-3-ylethanol] | 422 nM |

Same assay, conditions: at 10000 nM

| Compound | inhibition at 10 µM |
| --- | --- |
| OC(c1cccnc1-c1cc(Cl)cc(Cl)c1)C(c1cccnc1)c1cccnc1F (single isomer, unassigned) [Example 3 Isomer 2, Enantiomer B, 1-[2-(3,5-dichlorophenyl)pyridin-3-yl]-2-(2-fluoropyridin-3-yl)-2-pyridin-3-ylethanol] | 89% |
